# Literature values in patent publication EP0374532B1, “Improved phase separation-microencapsulated pharmaceutical compositions useful for alleviating dental disease” (AMERICAN CYANAMID COMPANY, priority 1988, dated 1990).
# Details: human periodontal fluid versus serum
compound,measurement,value
"CN(C)c1ccc(O)c2c1C[C@H]1C[C@H]3[C@H](N(C)C)C(O)=C(C(N)=O)C(=O)[C@@]3(O)C(O)=C1C2=O [minocycline, 7-dimethylamino-6-deoxy-6-demethyltetracycline]",levels in human periodontal fluid higher than serum levels,five
